PMC10891214, “Effects of food and ethnicity on the pharmacokinetics of venadaparib, a next-generation PARP inhibitor, in healthy Korean, Caucasian, and Chinese male subjects” (Investigational New Drugs, 2023)

Assay: Safety assessment (adverse events, vital signs, 12-lead ECGs) after a single administration of venadaparib 80 mg
[1] = Caucasian, fasted state (N = 12)

Protocol: Safety was assessed in all subjects who received the study drug at least once throughout the study based on adverse event (AE) monitoring, physical examinations, vital signs, 12-lead electrocardiograms (ECGs), and clinical laboratory tests.
To support the evaluation of the relationship between concentration and QT/corrected QT (QTc) interval effects in the early stage of the clinical development of venadaparib, triplicate ECG tests were conducted in the middle of the study [22]. A triplicate ECG test was conducted in three Caucasian and five Chinese subjects after the protocol amendment. […] Fridericia’s corrected QT interval (QTcF) was collected, along with the existing ventricular rate, PR interval, QRS duration, QT interval, and QTcB. Triplicate ECGs were measured three times at intervals of 30 s to 2 min at each time point after at least 5 min of resting, and the median value of the three measurements was considered a representative value. QTcF and QTcB were calculated using the following population-derived correction equations: QTcF = QT/RR^0.33 and QTcB = QT/RR^0.5 [22].

O=C(c1cc(Cc2n[nH]c(=O)c3ccccc23)ccc1F)N1CC(CNC2CC2)C1 [venadaparib]
1: Blood bilirubin increased: number of events [1] | Chalazion: number of events [1] | Eye disorders: number of events [1] | Gastrointestinal disorders: number of events [1] | Hyperuricaemia: number of events [1] | Investigations: number of events [1] | Metabolism and nutrition disorders: number of events [1] | Nausea: number of events [1] | Blood and lymphatic system disorders: number of events (Caucasian, fed state (N = 12)) | Blood bilirubin increased: number of events (Caucasian, fed state (N = 12)) | Decreased appetite: number of events (Caucasian, fed state (N = 12)) | Dermatitis contact: number of events (Caucasian, fed state (N = 12)) | Eosinophilia: number of events (Caucasian, fed state (N = 12)) | Epigastric discomfort: number of events (Caucasian, fed state (N = 12)) | Gastrointestinal disorders: number of events (Caucasian, fed state (N = 12)) | General disorders and administration site conditions: number of events (Caucasian, fed state (N = 12)) | Headache: number of events (Caucasian, fed state (N = 12)) | Hyperuricaemia: number of events (Caucasian, fed state (N = 12)) | Investigations: number of events (Caucasian, fed state (N = 12)) | Lethargy: number of events (Caucasian, fed state (N = 12)) | Skin and subcutaneous tissue disorders: number of events (Caucasian, fed state (N = 12)) | Thirst: number of events (Caucasian, fed state (N = 12)) | Decreased appetite: number of events (Chinese, fasted state (N = 12)) | Dyspepsia: number of events (Chinese, fasted state (N = 12)) | Gastrointestinal disorders: number of events (Chinese, fasted state (N = 12)) | Hypertriglyceridaemia: number of events (Chinese, fasted state (N = 12))
2: Metabolism and nutrition disorders: number of events (Caucasian, fed state (N = 12)) | Nervous system disorders: number of events (Caucasian, fed state (N = 12)) | Metabolism and nutrition disorders: number of events (Chinese, fasted state (N = 12))
mild: Severity of TEAEs (80 mg single dose, except contact dermatitis (moderate) in one subject, fed state)
2 (16.7): Metabolism and nutrition disorders: number of subjects (percentage of subjects) (Caucasian, fed state (N = 12)) | Nervous system disorders: number of subjects (percentage of subjects) (Caucasian, fed state (N = 12))
did not prolong: Effect of plasma concentrations on QTcF and QTcB values, including changes from the baseline (80 mg single dose, triplicate ECG subset)
No clinically significant changes: Changes in vital signs or 12-lead ECGs (80 mg single dose)
9: Total TEAEs: number of events (Caucasian, fed state (N = 12))
No serious AEs were observed: Serious AEs (80 mg single dose, all groups)
7 (58.3): Total TEAEs: number of subjects (percentage of subjects) (Caucasian, fed state (N = 12))
1 (8.3): Chalazion: number of subjects (percentage of subjects) [1] | Eye disorders: number of subjects (percentage of subjects) [1] | Gastrointestinal disorders: number of subjects (percentage of subjects) [1] | Metabolism and nutrition disorders: number of subjects (percentage of subjects) [1] | Nausea: number of subjects (percentage of subjects) [1] | Blood and lymphatic system disorders: number of subjects (percentage of subjects) (Caucasian, fed state (N = 12)) | Blood bilirubin increased: number of subjects (percentage of subjects) (Caucasian, fed state (N = 12)) | Decreased appetite: number of subjects (percentage of subjects) (Caucasian, fed state (N = 12)) | Dermatitis contact: number of subjects (percentage of subjects) (Caucasian, fed state (N = 12)) | Eosinophilia: number of subjects (percentage of subjects) (Caucasian, fed state (N = 12)) | Epigastric discomfort: number of subjects (percentage of subjects) (Caucasian, fed state (N = 12)) | General disorders and administration site conditions: number of subjects (percentage of subjects) (Caucasian, fed state (N = 12)) | Headache: number of subjects (percentage of subjects) (Caucasian, fed state (N = 12)) | Hyperuricaemia: number of subjects (percentage of subjects) (Caucasian, fed state (N = 12)) | Investigations: number of subjects (percentage of subjects) (Caucasian, fed state (N = 12)) | Lethargy: number of subjects (percentage of subjects) (Caucasian, fed state (N = 12)) | Skin and subcutaneous tissue disorders: number of subjects (percentage of subjects) (Caucasian, fed state (N = 12)) | Thirst: number of subjects (percentage of subjects) (Caucasian, fed state (N = 12)) | Decreased appetite: number of subjects (percentage of subjects) (Chinese, fasted state (N = 12)) | Dyspepsia: number of subjects (percentage of subjects) (Chinese, fasted state (N = 12)) | Gastrointestinal disorders: number of subjects (percentage of subjects) (Chinese, fasted state (N = 12)) | Hypertriglyceridaemia: number of subjects (percentage of subjects) (Chinese, fasted state (N = 12))
safe and well-tolerated: Safety and tolerability of a single dose (80 mg, fasted and fed states, healthy subjects)
